Reference: publication PMC9851200, “Multiparameter phenotypic screening for endogenous TFEB and TFE3 translocation identifies novel chemical series modulating lysosome function” (Autophagy, 2022)
Read-outs that look alike come from different tables or passages of the source.

How the values were obtained:
Settings in all cases: PKIS2 primary screening
SH-SY5Y cells [1] = assay: AK (adenylate kinase) release ToxiLight cytotoxicity assay
Protocol: Total cell lysis with 5 µL 5% Triton-X 100 (Sigma-Aldrich, T8787) is used as a positive control for the assay and toxicity is expressed as a percentage of luminescence under DMSO conditions.

SH-SY5Y cells [2] = assay: Nuclear count from microscopy images (cellular growth and toxicity)
SH-SY5Y cells [3] = tested on: SH-SY5Y cells
Description: The PKIS2 Library was supplied by The Structural Genomics Consortium at the University of North Carolina at Chapel Hill.

endogenous TFE3 = assay: TFE3 nuclear translocation, immunocytochemistry high-content imaging; type: cell-based; also: test concentration or dose not given here
endogenous TFEB = assay: TFEB nuclear translocation, immunocytochemistry high-content imaging; type: cell-based; also: test concentration or dose not given here

SMILES: COC(=O)Nc1nc2ccc(Oc3ccc(NC(=O)Nc4cccc(SC)c4)cc3)cc2[nH]1 [GW697999]
- AK (SH-SY5Y cells [1]): 75.30
- Nuclear Count (SH-SY5Y cells [2]): 71.32
- DQ Intensity (SH-SY5Y cells [3]; DQ Red BSA intensity): 145.78
- DQ Spot (SH-SY5Y cells [3]; DQ Red BSA spot count): 122.82
- TFE3 % (endogenous TFE3): 19.88%
- TFEB % (endogenous TFEB): 5.11%

SMILES: Fc1ccc(Nc2nccc(-c3c(-c4ccc(Cl)cc4)nn4ncccc34)n2)cc1F [UNC10225073A]
- AK (SH-SY5Y cells [1]): 84.83
- Nuclear Count (SH-SY5Y cells [2]): 119.55
- DQ Intensity (SH-SY5Y cells [3]): 129.98
- DQ Spot (SH-SY5Y cells [3]): 108.87
- TFE3 % (endogenous TFE3): 12.07%
- TFEB % (endogenous TFEB): 10.16%

SMILES: Cc1ccc2c(-c3ccncc3)c(-c3ccc(F)cc3)nn2c1.Cl [UNC10225321A]
- AK (SH-SY5Y cells [1]): 67.03
- Nuclear Count (SH-SY5Y cells [2]): 114.41
- DQ Intensity (SH-SY5Y cells [3]; DQ Red BSA intensity): 88.59
- DQ Spot (SH-SY5Y cells [3]; DQ Red BSA spot count): 94.42
- TFE3 % (endogenous TFE3): 14.14%
- TFEB % (endogenous TFEB): 3.59%

SMILES: CS(=O)(=O)CCNCc1nc(-c2ccc3ncnc(Nc4ccc(OCc5cccc(F)c5)c(Cl)c4)c3c2)cs1.Cl [UNC10225091A]
- AK (SH-SY5Y cells [1]): 98.46
- Nuclear Count (SH-SY5Y cells [2]): 114.33
- DQ Intensity (SH-SY5Y cells [3]; DQ Red BSA intensity): 63.39
- DQ Spot (SH-SY5Y cells [3]; DQ Red BSA spot count): 82.01
- TFE3 % (endogenous TFE3): 9.84%
- TFEB % (endogenous TFEB): 5.83%

SMILES: Cc1ccc(S(=O)(=O)Nc2ccc(Nc3nccc(Nc4cccc5[nH]ncc45)n3)cc2)cc1 [GSK581271]
- AK (SH-SY5Y cells [1]): 89.43
- Nuclear Count (SH-SY5Y cells [2]): 129.24
- DQ Intensity (SH-SY5Y cells [3]; DQ Red BSA intensity): 132.42
- DQ Spot (SH-SY5Y cells [3]; DQ Red BSA spot count): 120.36
- TFE3 % (endogenous TFE3): 6.80%
- TFEB % (endogenous TFEB): 3.93%

SMILES: COC(=O)Nc1nc2ccc(Oc3ccc(NC(=O)Nc4cc(C(F)(F)F)ccc4Cl)cc3)cc2[nH]1 [GW697465]
- AK (SH-SY5Y cells [1]): 89.89
- Nuclear Count (SH-SY5Y cells [2]): 70.87
- DQ Intensity (SH-SY5Y cells [3]; DQ Red BSA intensity): 71.39
- DQ Spot (SH-SY5Y cells [3]; DQ Red BSA spot count): 100.12
- TFE3 % (endogenous TFE3): 30.84%
- TFEB % (endogenous TFEB): 5.88%

SMILES: CC(C(=O)NC1CCN(c2ccnc(Nc3ccc(F)cc3)n2)C1)c1ccc(Cl)cc1 (stereo not drawn) [GSK1379713]
- AK (SH-SY5Y cells [1]): 94.01
- Nuclear Count (SH-SY5Y cells [2]): 84.41
- DQ Intensity (SH-SY5Y cells [3]; DQ Red BSA intensity): 153.18
- DQ Spot (SH-SY5Y cells [3]; DQ Red BSA spot count): 124.60
- TFE3 % (endogenous TFE3): 10.33%
- TFEB % (endogenous TFEB): 6.54%

SMILES: CCn1c(-c2nonc2N)nc2c(C#CC(C)(C)O)ncc(OCCCCN)c21.O=C(O)C(F)(F)F.O=C(O)C(F)(F)F [UNC10225393A]
- AK (SH-SY5Y cells [1]): 69.12
- Nuclear Count (SH-SY5Y cells [2]): 121.84
- DQ Intensity (SH-SY5Y cells [3]): 115.98
- DQ Spot (SH-SY5Y cells [3]): 109.86
- TFE3 % (endogenous TFE3): 10.89%
- TFEB % (endogenous TFEB): 2.26%

SMILES: COc1ccc(Nc2ncc(C#N)c(Nc3ccccc3C(N)=O)n2)cc1N1CCN(C)CC1 [GSK1558669]
- AK (SH-SY5Y cells [1]): 96.14
- Nuclear Count (SH-SY5Y cells [2]): 62.25
- DQ Intensity (SH-SY5Y cells [3]; DQ Red BSA intensity): 142.11
- DQ Spot (SH-SY5Y cells [3]; DQ Red BSA spot count): 120.07
- TFE3 % (endogenous TFE3): 11.88%
- TFEB % (endogenous TFEB): 5.16%

SMILES: CN(c1ccc2c(c1)nc(NCc1ccccc1)n2C)c1ccnc(Nc2ccc(CS(C)(=O)=O)cc2)n1 [GW811603]
- AK (SH-SY5Y cells [1]): 192.03
- Nuclear Count (SH-SY5Y cells [2]): 118.98
- DQ Intensity (SH-SY5Y cells [3]; DQ Red BSA intensity): 108.65
- DQ Spot (SH-SY5Y cells [3]; DQ Red BSA spot count): 109.65
- TFE3 % (endogenous TFE3): 9.93%
- TFEB % (endogenous TFEB): 7.98%

SMILES: Cc1ccccc1-c1cc(-c2c[nH]nc2-c2ccccn2)ccn1 [UNC10225243A]
- AK (SH-SY5Y cells [1]): 94.72
- Nuclear Count (SH-SY5Y cells [2]): 90.96
- DQ Intensity (SH-SY5Y cells [3]; DQ Red BSA intensity): 62.92
- DQ Spot (SH-SY5Y cells [3]; DQ Red BSA spot count): 82.05
- TFE3 % (endogenous TFE3): 14.74%
- TFEB % (endogenous TFEB): 4.36%

SMILES: FC(F)(F)c1ccc(/C=C/c2cncnc2Nc2ccc3[nH]c(Cc4ccccc4)nc3c2)cc1 [UNC10225096A]
- AK (SH-SY5Y cells [1]): 102.23
- Nuclear Count (SH-SY5Y cells [2]): 103.45
- DQ Intensity (SH-SY5Y cells [3]; DQ Red BSA intensity): 116.48
- DQ Spot (SH-SY5Y cells [3]; DQ Red BSA spot count): 101.82
- TFE3 % (endogenous TFE3): 12.52%
- TFEB % (endogenous TFEB): 6.39%

SMILES: CCC(CC)(CC)n1cnc2c(N)ncnc21 [UNC10225302A]
- AK (SH-SY5Y cells [1]): 115.78
- Nuclear Count (SH-SY5Y cells [2]): 100.18
- DQ Intensity (SH-SY5Y cells [3]): 92.29
- DQ Spot (SH-SY5Y cells [3]): 100.17
- TFE3 % (endogenous TFE3): 9.37%
- TFEB % (endogenous TFEB): 11.64%

SMILES: O=C(Nc1ccc(Oc2ccc3nc(NC(=O)c4ccco4)[nH]c3c2)cc1)Nc1cc(C(F)(F)F)ccc1F [GW683134]
- AK (SH-SY5Y cells [1]): 83.90
- Nuclear Count (SH-SY5Y cells [2]): 71.64
- DQ Intensity (SH-SY5Y cells [3]; DQ Red BSA intensity): 82.17
- DQ Spot (SH-SY5Y cells [3]; DQ Red BSA spot count): 71.77
- TFE3 % (endogenous TFE3): 30.65%
- TFEB % (endogenous TFEB): 14.35%

SMILES: CN(C)c1ncnc2nc[nH]c12 [UNC10243858A]
- AK (SH-SY5Y cells [1]): 79.19
- Nuclear Count (SH-SY5Y cells [2]): 91.65
- DQ Intensity (SH-SY5Y cells [3]): 152.14
- DQ Spot (SH-SY5Y cells [3]): 119.94
- TFE3 % (endogenous TFE3): 16.40%
- TFEB % (endogenous TFEB): 5.99%

SMILES: FC(F)(F)c1cc(Br)cc(Nc2nccc(-c3cnn4ncccc34)n2)c1 [UNC10225191A]
- AK (SH-SY5Y cells [1]): 83.14
- Nuclear Count (SH-SY5Y cells [2]): 72.92
- DQ Intensity (SH-SY5Y cells [3]): 110.85
- DQ Spot (SH-SY5Y cells [3]): 116.61
- TFE3 % (endogenous TFE3): 14.10%
- TFEB % (endogenous TFEB): 6.52%

SMILES: CC(=O)c1c(-c2ccncc2)[nH]c(-c2ccncc2)c1C [UNC10225248A]
- AK (SH-SY5Y cells [1]): 107.07
- Nuclear Count (SH-SY5Y cells [2]): 71.54
- DQ Intensity (SH-SY5Y cells [3]): 75.03
- DQ Spot (SH-SY5Y cells [3]): 97.66
- TFE3 % (endogenous TFE3): 12.82%
- TFEB % (endogenous TFEB): 5.93%

SMILES: Nc1n[nH]c2cc(-c3ccccn3)ccc12 [GSK2189892]
- AK (SH-SY5Y cells [1]): 114.93
- Nuclear Count (SH-SY5Y cells [2]): 100.38
- DQ Intensity (SH-SY5Y cells [3]; DQ Red BSA intensity): 114.80
- DQ Spot (SH-SY5Y cells [3]; DQ Red BSA spot count): 107.54
- TFE3 % (endogenous TFE3): 11.18%
- TFEB % (endogenous TFEB): 8.33%

SMILES: c1ccc(-c2cc(-c3c[nH]nc3-c3ccccn3)ccn2)cc1 [UNC10225169A]
- AK (SH-SY5Y cells [1]): 72.24
- Nuclear Count (SH-SY5Y cells [2]): 139.75
- DQ Intensity (SH-SY5Y cells [3]; DQ Red BSA intensity): 83.52
- DQ Spot (SH-SY5Y cells [3]; DQ Red BSA spot count): 97.79
- TFE3 % (endogenous TFE3): 6.57%
- TFEB % (endogenous TFEB): 2.50%

SMILES: Cc1c2ccc(N(C)c3ccnc(Nc4cccc(S(N)(=O)=O)c4)n3)cc2nn1Cc1ccccc1 [GW787226]
- AK (SH-SY5Y cells [1]): 80.53
- Nuclear Count (SH-SY5Y cells [2]): 121.46
- DQ Intensity (SH-SY5Y cells [3]; DQ Red BSA intensity): 91.24
- DQ Spot (SH-SY5Y cells [3]; DQ Red BSA spot count): 90.69
- TFE3 % (endogenous TFE3): 15.06%
- TFEB % (endogenous TFEB): 8.93%

SMILES: Fc1ccc(-c2nc3n(c2-c2ccncc2)CCS3)cc1 [UNC10225163A]
- AK (SH-SY5Y cells [1]): 64.81
- Nuclear Count (SH-SY5Y cells [2]): 90.62
- DQ Intensity (SH-SY5Y cells [3]; DQ Red BSA intensity): 100.39
- DQ Spot (SH-SY5Y cells [3]; DQ Red BSA spot count): 119.65
- TFE3 % (endogenous TFE3): 5.95%
- TFEB % (endogenous TFEB): 3.29%

SMILES: O=c1cc(N2CCOCC2)nc2n(Cc3cccc(C(F)(F)F)c3)ccn12 [UNC10225024A]
- AK (SH-SY5Y cells [1]): 84.29
- Nuclear Count (SH-SY5Y cells [2]): 98.56
- DQ Intensity (SH-SY5Y cells [3]): 73.22
- DQ Spot (SH-SY5Y cells [3]): 100.00
- TFE3 % (endogenous TFE3): 12.11%
- TFEB % (endogenous TFEB): 3.55%

SMILES: N#CCc1ccc(Nc2nccc(Nc3ccc(Oc4ccccc4)cc3)n2)cc1 [GW639905]
- AK (SH-SY5Y cells [1]): 115.45
- Nuclear Count (SH-SY5Y cells [2]): 107.11
- DQ Intensity (SH-SY5Y cells [3]; DQ Red BSA intensity): 108.02
- DQ Spot (SH-SY5Y cells [3]; DQ Red BSA spot count): 113.65
- TFE3 % (endogenous TFE3): 15.01%
- TFEB % (endogenous TFEB): 8.66%

SMILES: CN(C)CCOc1ccc(-c2cc(-c3c[nH]nc3-c3ccccn3)ccn2)cc1 [UNC10225226A]
- AK (SH-SY5Y cells [1]): 93.65
- Nuclear Count (SH-SY5Y cells [2]): 49.06
- DQ Intensity (SH-SY5Y cells [3]; DQ Red BSA intensity): 136.49
- DQ Spot (SH-SY5Y cells [3]; DQ Red BSA spot count): 114.20
- TFE3 % (endogenous TFE3): 7.10%
- TFEB % (endogenous TFEB): 11.71%

SMILES: COc1cc(Nc2nccc(N3CCC(NC(=O)c4cccc(NC(C)=O)c4)C3)n2)cc(OC)c1OC (stereo not drawn) [GSK1379754]
- AK (SH-SY5Y cells [1]): 115.02
- Nuclear Count (SH-SY5Y cells [2]): 143.24
- DQ Intensity (SH-SY5Y cells [3]; DQ Red BSA intensity): 91.71
- DQ Spot (SH-SY5Y cells [3]; DQ Red BSA spot count): 95.86
- TFE3 % (endogenous TFE3): 7.67%
- TFEB % (endogenous TFEB): 3.28%

SMILES: COCCNC(=O)c1ccc(-c2cc(C(=O)NC3CC3)cc(F)c2C)cc1 [UNC10225229A]
- AK (SH-SY5Y cells [1]): 73.51
- Nuclear Count (SH-SY5Y cells [2]): 111.58
- DQ Intensity (SH-SY5Y cells [3]): 100.76
- DQ Spot (SH-SY5Y cells [3]): 101.89
- TFE3 % (endogenous TFE3): 7.62%
- TFEB % (endogenous TFEB): 15.26%

SMILES: O=C(c1ccc(-c2cc(-c3c[nH]nc3-c3ccccn3)ccn2)cc1)N1CCCC1 [UNC10225230A]
- AK (SH-SY5Y cells [1]): 75.56
- Nuclear Count (SH-SY5Y cells [2]): 86.33
- DQ Intensity (SH-SY5Y cells [3]; DQ Red BSA intensity): 81.19
- DQ Spot (SH-SY5Y cells [3]; DQ Red BSA spot count): 99.92
- TFE3 % (endogenous TFE3): 11.53%
- TFEB % (endogenous TFEB): 9.58%
